The record followed here is article PMC9607427, “Novel 7-Chloro-(4-thioalkylquinoline) Derivatives: Synthesis and Antiproliferative Activity through Inducing Apoptosis and DNA/RNA Damage” (Pharmaceuticals, 2022).

Data set [1] is described as follows: Cytotoxic MTS assay, whole panel of tested cell lines. The format is cell-based, human. The conditions noted are these: human; MTS, 72 h of incubation, all tested cell lines; read-out: Cytotoxic activity IC50, tested cell lines (considered inactive). The method, then: (§1) In vitro cytotoxic activity of final compounds 5–82 was evaluated after 3 days of incubation against eight cell lines derived from human solid tumors including lung (A549 cells) and colon (HCT116 and HCT116p53−/−) carcinomas, as well as leukemia cell lines (CCRF-CEM, CEM-DNR, K562, and K562-TAX) and osteosarcoma (U2OS cells). For comparison, non-malignant BJ and MRC-5 fibroblasts, and BJLD and MCR-5LD fibroblasts doxorubicin-resistant cell lines were used. Concentrations inhibiting the cell growth by 50% (IC50) were determined using a quantitative metabolic staining with 3-(4,5-dimethylthiazol-2yl)-5-(3-carboxymethoxyphenyl)-2-(4-sulfophenyl)-2H-tetrazolium (MTS) and are summarized in (Table 3).
(§2) Cytotoxic activity was determined by MTS assay following 72 h of incubation. IC50 is the lowest concentration that kills 50% of cells. The standard deviation in cytotoxicity assays is typically up to 20% of the average value. […] The tested cell lines: A549 (lung adenocarcinoma), BJ (noncancerous human fibroblasts from foreskin), BJLD (human lung fibroblast doxorubicin-resistant), CCRF-CEM (childhood T cell acute lymphoblastic leukemia), a daunorubicin-resistant subline of CCRF-CEM cells (CEM-DNR bulk), HCT116 (colorectal carcinoma), HCT116p53−/− (HCT116 with deleted p53 gene), K562 (chronic myeloid leukemia), K562-TAX (chronic myeloid leukemia paclitaxel-resistant subline), MRC-5 (noncancerous human lung fibroblasts), MRC-5LD (noncancerous human lung fibroblasts doxorubicin-resistant), and U2OS (osteosarcoma).
(§3) All cell lines were purchased from the American Tissue Culture Collection (ATCC). The A549 cell line is lung adenocarcinoma. MRC-5 and BJ cell lines were used as a non-tumor control and represent human fibroblasts. (MRC-5 LD and BJLD) are doxorubicin-resistant human lung fibroblast cell lines. The CCRF-CEM line is derived from T lymphoblastic leukemia, evincing high chemosensitivity, whereas K562 represent cells from an […] patient sample with bcr-abl translocation. The daunorubicin-resistant subline of CCRF-CEM cells (CEM-DNR bulk) and paclitaxel-resistant subline K562-TAX were selected in our laboratory by the cultivation of maternal cell lines in increasing concentrations of daunorubicin or paclitaxel, respectively. The CEM-DNR bulk cells overexpress MRP-1 and P-glycoprotein protein, whereas K562-TAX cells overexpress P-glycoprotein only. Both proteins belong to the family of ABC transporters and are involved in the primary and/or acquired multidrug-resistance phenomenon. The U2OS cell line is derived from osteosarcoma, HCT116 is a colorectal tumor cell line and its p53 gene knock-down counterpart (HCT116p53−/−, Horizon Discovery Ltd., Cambridge, UK) is a model of human cancers with p53 mutation frequently associated with poor prognosis. The cells were maintained in nunc/corning 80 cm^2 plastic tissue culture flasks and cultured in a cell culture medium according to ATCC or Horizon recommendations (DMEM/RPMI 1640 with 5 g/L glucose, 2 mM glutamine, 100 U/mL penicillin, […], 10% fetal calf serum, and NaHCO3).
(§4) The activity of compounds was determined using a standard 3-(4,5-dimethylthiazol-2-yl)-5-(3-carboxymethoxyphenyl)-2-(4-sulfophenyl)-2H-tetrazolium (MTS) and it was performed at the Institute of Molecular and Translational Medicine by a robotic platform (High-ResBiosolutions). Cell suspensions were prepared and diluted according to the particular cell type and the expected target cell density (25,000–35,000 cells/mL based on cell growth characteristics). Cells were added by automatic pipettor (30 µL) into 384-well microtiter plates. All tested compounds were dissolved in 100% DMSO and four-fold dilutions of the intended test concentration were added in 0.15 µL aliquots at time zero to the microtiter plate wells by the echo acoustic non-contact liquid handler Echo550 (Labcyte). […]
(Tetrazolium dyes change colour on reduction, which living cells bring about.)

Data set [2] deals with K562 (chronic myeloid leukemia). Put plainly: Cytotoxic MTS assay, K562. It is filed as cell-based, human. The essentials:
(§5)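 Read-out was MTS absorbance at 490 nm, converted to tumor cell survival and fitted for the concentration inhibiting growth by 50%. Cells had been incubated with compound for 72 h in DMEM/RPMI 1640 with 10% fetal calf serum.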

Data set [3] deals with BJ (noncancerous human fibroblasts from foreskin). Put plainly: Cytotoxic MTS assay, BJ. The format is cell-based. The essentials:
(§6)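 IC50 values derive from MTS metabolic staining after 3 days of compound exposure, at least three biological replicates in technical duplicate; SD typically up to 20% of the mean.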

Data set [4] concerns eight human cancer and 4 non-tumor cell lines. As to the kind of experiment: Cytotoxic MTS assay, whole panel of tested cell lines. The format is cell-based. To be noted: for Selectivity for cancer cells compared against BJ and MRC-5 cells: colon, leukemia, lung and osteosarcoma cancer cell lines vs BJ and MRC-5; for Selectivity for leukemic and colorectal cancer cells compared to MRC-5: leukemic and colorectal (with and without p53 deletion) cancer cells vs MRC-5. The procedure:
as §1, §2, §3, §4

Data set [5] relates to K562-TAX (chronic myeloid leukemia paclitaxel-resistant subline). As to the kind of experiment: Cytotoxic MTS assay, K562-TAX. It is filed as cell-based, human. The procedure, abridged: as §5
Data set [6] concerns CCRF-CEM (childhood T cell acute lymphoblastic leukemia). Put plainly: Cytotoxic MTS assay, CCRF-CEM. It is filed as cell-based, human. The procedure, abridged:
as §5

For data set [7], the system named is CEM-DNR bulk (daunorubicin-resistant subline of CCRF-CEM cells). As to the kind of experiment: Cytotoxic MTS assay, CEM-DNR. The format is cell-based, human. The essentials: as §5
The test system of data set [8] is HCT116p53−/− (HCT116 with deleted p53 gene). Put plainly: Cytotoxic MTS assay, HCT116p53−/−. It is filed as cell-based, human. The procedure, abridged:
as §5

Data set [9] deals with U2OS (osteosarcoma). Put plainly: Cytotoxic MTS assay, U2OS. The format is cell-based, human. The essentials: as §5
Data set [10] has as its system A549 (lung adenocarcinoma). Put plainly: Cytotoxic MTS assay, A549. The format is cell-based, human. The essentials:
as §5

The subject of data set [11] is MRC-5 (noncancerous human lung fibroblasts). Put plainly: Cytotoxic MTS assay, MRC-5. It is filed as cell-based. The procedure, abridged: as §6
The test system of data set [12] is BJLD (human lung fibroblast doxorubicin-resistant). Put plainly: Cytotoxic MTS assay, BJLD. It is filed as cell-based. The essentials:
as §5

The test system of data set [13] is HCT116 (colorectal carcinoma). Put plainly: Cytotoxic MTS assay, HCT116. It is filed as cell-based, human. The essentials:
as §5

Data set [14] has as its system MRC-5LD (noncancerous human lung fibroblasts doxorubicin-resistant). As to the kind of experiment: Cytotoxic MTS assay, MRC-5LD. The format is cell-based. The essentials:
as §6

By IC50 is commonly meant the concentration at which inhibition is half-maximal. A word on the melting point: it is the temperature of the solid-liquid transition. On to `CC(C)(C)c1ccc(C(=O)OCC[S+]([O-])c2ccnc3cc(Cl)ccc23)cc1` (stereo not shown) [Compound 52, 2-[(7-Chloroquinolin-4-yl)sulfinyl]ethyl-4-tert-butylbenzoate], for which the melting point was found to be 106 °C. In addition, the IC50 at 72 h in [1] is above 50 µM.
In the case of `Cc1cc(C)cc(C(=O)OCCCS(=O)(=O)c2cc[n+]([O-])c3cc(Cl)ccc23)c1` [Compound 81, 3-[(N-Oxide 7-chloroquinolin-4-yl)sulfonyl]propyl-3,5-dimethylbenzoate], the IC50 came out at 3.78 µM in data set [2]; 32.5 µM in data set [3]; 6.26 µM in data set [5]; 1.2 µM in data set [6]; 6.63 µM in data set [7]; 4.76 µM in data set [8]. Further, the IC50 was 5.67 µM in data set [9]; 5.32 µM in data set [10]; 46.7 µM in data set [11]; 25.4 µM in data set [12]; 3.46 µM in [13]; 21.9 µM in [14]. Besides, the “Selectivity for cancer cells compared against BJ and MRC-5 cells” value in [4] is “most pronounced selectivity”.
As for `COc1cccc(C(=O)OCCCS(=O)(=O)c2cc[n+]([O-])c3cc(Cl)ccc23)c1OC` [Compound 74, 3-[(N-Oxide 7-chloroquinolin-4-yl)sulfonyl]propyl-2,3-dimethoxybenzoate], the IC50 came to 2.71 µM in [2]; 14.9 µM in data set [3]; 4.91 µM in data set [5]; 1.41 µM in data set [6]; 5.58 µM in data set [7]; 5.4 µM in [9]. The IC50 stood at 5.35 µM in data set [10]; 20.4 µM in [11]; 10.5 µM in data set [12]; 3.23 µM in data set [13]; 16.2 µM in data set [14]. Moreover, the “Selectivity for leukemic and colorectal cancer cells compared to MRC-5” value in [4] is given as “good selectivity”.
As for `COc1ccccc1C(=O)OCCC[S+]([O-])c1ccnc2cc(Cl)ccc12` (stereo not shown) [Compound 58, 3-[(7-Chloroquinolin-4-yl)sulfinyl]propyl-2-methoxybenzoate], the IC50 at 72 h in data set [1] is above 50 µM.
Take `COc1ccc(C(=O)OCCCS(=O)(=O)c2cc[n+]([O-])c3cc(Cl)ccc23)cc1[N+](=O)[O-]` [Compound 79, 3-[(N-Oxide 7-chloroquinolin-4-yl)sulfonyl]propyl-4-methoxy-3-nitrobenzoate]: the IC50 in [2] is 6.09 µM; in [3] it was 19 µM; in data set [5], 3.73 µM; in [6], 1.05 µM; in data set [7], 4.49 µM; in data set [8], 4.98 µM. Moreover, the concentration for half-maximal inhibition (IC50) in data set [9] is 4.95 µM; in data set [10], 5.79 µM; in data set [11] it was 20.6 µM; in [12] it was 12 µM; in [13], 3.81 µM; in data set [14], 13.8 µM. Also, in [4], the “Selectivity for cancer cells compared against BJ and MRC-5 cells” value was “good selectivity”. In addition, the “Cancer cell selectivity for A549 cells compared to BJ and MRC-5 cell lines” value in [10] (A549 vs BJ and MRC-5) is “moderate cancer cell selectivity”.
As for `O=C(OCC[S+]([O-])c1ccnc2cc(Cl)ccc12)c1ccc(C(F)(F)F)cc1` (stereo not shown) [Compound 51, 2-[(7-Chloroquinolin-4-yl)sulfinyl]ethyl-4-(trifluoromethyl)benzoate], the melting point was 148 to 150 °C. Also, the IC50 at 72 h in data set [1] is above 50 µM.
For `COc1cc(OC)c(C(=O)OCCC[S+]([O-])c2ccnc3cc(Cl)ccc23)cc1OC` (stereo not shown) [Compound 56, 3-[(7-Chloroquinolin-4-yl)sulfinyl]propyl-2,4,5-trimethoxybenzoate], the IC50 at 72 h in [1] is above 50 µM.
`COc1ccc(C(=O)OCCCS(=O)(=O)c2cc[n+]([O-])c3cc(Cl)ccc23)cc1` [Compound 73, 3-[(N-Oxide 7-chloroquinolin-4-yl)sulfonyl]propyl-4-methoxybenzoate]: the IC50 in data set [2] worked out at 2.2 µM; in data set [3] it was 12.4 µM; in [5] it was 4.62 µM; in [6], 2.18 µM; in data set [7] it was 4.7 µM; in data set [8], 2.24 µM. Further, the IC50 in data set [9] stood at 5.75 µM; in [10], 5.44 µM; in data set [11], 21.9 µM; in data set [12], 10.7 µM; in [13] it was 1.99 µM; in data set [14], 19 µM. The “Selectivity for leukemic and colorectal cancer cells compared to MRC-5” value in [4] is recorded as “good selectivity”.
